Reference: paper PMC8222354 (2021)

What was measured:
[1] = test system: Tt preQ1-I RNA wildtype (RNA, riboswitch) CUGGGUCGCAGUAACCCCAGUUAACAAAACAAG; assay: isothermal titration calorimetry; settings: 100 mM KCl, 2 mM MgCl2; 50 mM MES, pH 6.0, 20 °C
[2] = test system: Tt preQ1-I RNA wildtype (RNA, riboswitch) CUGGGUCGCAGUAACCCCAGUUAACAAAACAAG; assay: methylation kinetics, anion-exchange HPLC (kobs versus ligand concentration); settings: 100 mM KCl, 2 mM MgCl2; MES, pH 6.0, 37 °C; apparent Michaelis constant; ligand methylates C15 N3 (covalent methyl transfer)
[3] = test system: Tt preQ1-I RNA C15U (RNA, riboswitch) CUGGGUCGCAGUAAUCCCAGUUAACAAAACAAG; assay: isothermal titration calorimetry; settings: 100 mM KCl, 2 mM MgCl2; 50 mM MES, pH 6.0, 20 °C

| SMILES | Kd^ITC [1] [µM] | Km,app [2] | Kd^ITC [3] [µM] |
| --- | --- | --- | --- |
| NCc1c[nH]c2nc(N)[nH]c(=O)c12 | 0.043 ± 0.0019 | – | – |
| COc1nc(N)nc2[nH]cc(CN)c12 | – | ~ 230 μM | 72.2 ± 2.1 |
